These results are taken from PMC5363373, “Zirconium tetraazamacrocycle complexes display extraordinary stability and provide a new strategy for zirconium-89-based radiopharmaceutical development” (Chemical Science, 2016).

A short description of one data set: PET/CT imaging. In kind it is in vivo, female NIH Swiss mice. The conditions noted are these: normal mice; for Route of excretion: PET imaging; for PET: radioactivity at 4 h after injection / PET: radioactivity at 24 h after injection: static imaging. The protocol:
PET/CT Imaging. PET imaging with 89Zr-DFO or 89Zr-DOTA was performed on healthy female NIH Swiss mice (6-8 wk old, n=6) using a small animal PET/CT scanner (eXplore VISTA model, GE Healthcare, Waukesha, WI). Before imaging, each mouse was anesthetized by inhalation of isoflurane mixed with oxygen gas (3% isoflurane for induction and 1-2% for maintenance) and a tail vein catheter was placed on the tail. The mouse was then positioned in the imaging cradle and a CT scan was performed for the subsequent attenuation correction and anatomical colocalization. After the CT scan, 89Zr-DFO or 89Zr-DOTA (11.1-12.5 MBq (300-338 µCi) in 100 µL saline/ mouse) was administered through the tail vein catheter, and a dynamic PET scan was simultaneously initiated and acquired for 1 hour to record the initial distribution and pharmacokinetics. Mice were re-anesthetized at 2, 4 and 24 hours, and a static PET scan was acquired for 20 min as late-phase scans. PET images were reconstructed using 2D ordered subset expectation maximization (2D-OSEM) algorithms with random, scatter, and attenuation corrections and then coregistered with the CT image. The PET system was calibrated using a Zr-89 phantom with known activity. Standard uptake value (SUV = [(nCi/mL) x (animal wt. (g))/ injected dose (nCi)]) and the measure of %ID/g was then calculated voxel-wise with the calibration factor and normalization to the injected dose and animal body weight. For dynamic scans, data were binned into 19 time frames with the following schemes: 6x10s, 2x30s, 3x60s, 5x5min, 3x10min. The tissue uptake curves were generated from the dynamic scans with regions of interest (ROIs) manually placed in heart, liver, kidney, bone, and muscle. Biodistribution data at 2, 4 and 24 hours were obtained from the PET images, with regions of interest placed in corresponding organs or tissues.

A short description of data set [1]: Behaviour of the complex in solution in vitro. The conditions noted are these: unless a low concentration of surfactant was included. In kind it is physicochemical.

For `CC(=O)N1CCCCCNC(=O)CCC(=O)N2CCCCCNC(=O)CCC(=O)N(CCCCCN)[O][89Zr+]([O]1)[O]2` [89Zr-DFO, reference compound], in “PET/CT imaging”, the Route of excretion entry is reported as “excreted renally”, the “PET: radioactivity at 4 h after injection” value was “more radioactivity accumulated in the kidneys” and the “PET: radioactivity at 24 h after injection” value is reported as “still visible”.
For `NC(=O)CN1CCN(CC(N)=O)CCN(CC(N)=O)CCN(CC(N)=O)CC1.[89Zr+4]` [89Zr-DOTAM], the “Behaviour in solution without surfactant” value in data set [1] was “aggregated and precipitated out of solution”.
Take `O=C1CN2CCN3CCN4CCN(CC2)CC(=O)[O][89Zr]([O]1)([O]C(=O)C3)[O]C(=O)C4` [89Zr-DOTA]: in “PET/CT imaging”, the Route of excretion result was “excreted renally”, the “PET: radioactivity at 4 h after injection” value is “nearly all the radioactivity was excreted” and the “PET: radioactivity at 24 h after injection” value is “barely above background levels”.
